The results in this text go back to patent US20250163057A1, “DCN-1 MODULATING COMPOUNDS AND METHODS OF USE THEREOF” (Cellarity, Inc., priority 2023, published 2025).

Molecules are shown by their SMILES. pIC50: −log10 of the molar value. Like-named read-outs stand apart in the source and are kept apart here.

One assay addresses DCN1 protein (Homo sapiens (Human), UniProt Q96GG9). Nature of the assay: Intact Protein MS Analysis with the RapidFire-TOF System (covalent adduct formation). The class given is binding. As to conditions: MS Emax; 400 nM DCN1, 3 hours at room temperature. The method, boiled down: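 Tag-cleaved human DCN1 (400 nM) expressed in E. coli, in 25 mM Tris-HCl, 200 mM NaCl, 1 mM DTT, was incubated with 11 compound concentrations for 3 h at room temperature and quenched with 0.2% formic acid. Intact-protein Q-TOF MS with deconvolution detected the compound adduct mass.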

The target of assay [1] is DCN1 (DCUND1) protein PONY domain (Homo sapiens (Human), UniProt Q96GG9). Nature of the assay: TR-FRET assay, DCN1 binding with FAM-labeled probe. As to conditions: for IC50: TR FRET IC50 1 hr (nM). The procedure, abridged: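 First, the E. coli-derived PONY domain was biotinylated and paired with streptavidin Tb cryptate. Compounds in 0.1% DMSO were then added to DCN1 and FAM-probe (5 nM/20 nM, or 0.31 nM/900 nM total with 800 nM unlabelled) in TritonX, 200 mM NaCl buffer. Finally, TR-FRET ratios were recorded at 1, 5 and 24 hrs.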
A general note: TR-FRET usually uses a lanthanide donor and a delayed reading to cut background.

[2] abbreviates: 24 hr after treatment with compound, read-out: TR FRET IC50 24 hr.
Setting [3] is: read-out: TR FRET IC50 1 hr, 1 hr after treatment with compound.
The mark [4] stands for this setting: 1 hr after treatment with compound.

Sequence of DCN1 (DCUND1) protein PONY domain (Q96GG9 60-248): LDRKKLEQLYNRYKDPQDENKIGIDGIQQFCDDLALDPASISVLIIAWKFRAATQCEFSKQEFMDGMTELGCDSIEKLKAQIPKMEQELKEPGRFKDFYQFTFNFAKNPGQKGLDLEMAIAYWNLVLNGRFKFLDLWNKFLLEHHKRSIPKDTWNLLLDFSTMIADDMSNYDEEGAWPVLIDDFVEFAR
Sequence of DCN1 protein (Q96GG9 whole entry): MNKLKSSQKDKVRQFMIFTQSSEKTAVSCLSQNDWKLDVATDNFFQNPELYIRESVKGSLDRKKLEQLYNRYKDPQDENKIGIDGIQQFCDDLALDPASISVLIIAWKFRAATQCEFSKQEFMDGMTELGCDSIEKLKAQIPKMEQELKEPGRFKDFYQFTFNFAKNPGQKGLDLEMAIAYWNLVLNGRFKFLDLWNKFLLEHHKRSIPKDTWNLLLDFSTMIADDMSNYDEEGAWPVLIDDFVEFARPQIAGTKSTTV

For `CCN1C(=O)[C@@H](NC(=O)c2cccc(C(F)(F)F)c2)[C@@H](c2ccc(F)cc2)c2c(C(=O)N3CCC[C@H]3C#N)nn(-c3ccccc3)c21` (mixture of isomers) [Compound I-34], the “% Adduct Formation” value at DCN1 protein was “+++ (MS Emax % adduct formation greater than 80.0 and less than or equal to 100.0)”.

A word on the pIC50: it is the IC50 on a negative log10 scale, so that one unit is a factor of ten. Consider `CCN1C(=O)[C@@H](NC(=O)c2cccc(C(F)(F)F)c2)[C@@H](c2ccc(F)cc2)c2c(C(=O)N3CS(=O)(=O)C[C@H]3C#N)nn(C3CCOCC3)c21` (mixture of isomers) [Compound I-661, N-((4S,5S)-3-(4-cyano-1,1-dioxidothiazolidine-3-carbonyl)-7-ethyl-4-(4-fluorophenyl)-6-oxo-1-(tetrahydro-2H-pyran-4-yl)-4,5,6,7-tetrahydro-1H-pyrazolo[3,4-b]pyridin-5-yl)-3-(trifluoromethyl)benzamide], for which the pIC50 in assay [1] (setting [2]) and in assay [1] (setting [3]) was at least 6.70 each time.

Take `CCN1C(=O)[C@@H](NC(=O)c2cccc(C(F)(F)F)c2)[C@@H](c2ccc(F)cc2)c2c(CNC(=O)/C=C/C(=O)OC)nn(-c3ccccc3)c21` (racemic) [Compound I-3]: the negative logarithm of the IC50 (pIC50) in assay [1] (setting [2]) and in assay [1] (setting [3]) was at least 6.70 throughout. Also, the “% Adduct Formation” value at DCN1 protein is “+++ (MS Emax % adduct formation greater than 80.0 and less than or equal to 100.0)”.

In general, IC50 refers to the concentration that gives 50% inhibition. Consider `C=C(CN1CCC1)C(=O)NCc1nn(-c2ccccc2)c2c1[C@H](c1ccc(F)cc1)[C@H](NC(=O)c1cccc(C(F)(F)F)c1)C(=O)N2CC` (racemic) [Compound I-49, rac-N-((4R,5R)-3-((2-(azetidin-1-ylmethyl)acrylamido)methyl)-7-ethyl-4-(4-fluorophenyl)-6-oxo-1-phenyl-4,5,6,7-tetrahydro-1H-pyrazolo[3,4-b]pyridin-5-yl)-3-(trifluoromethyl)benzamide], for which the pIC50 in assay [1] (setting [2]) is at least 6.70. Also, in assay [1] (setting [4]), the IC50 was at most 200 nM.

With `CCN1C(=O)[C@@H](NC(=O)c2cccc(C(F)(F)F)c2)[C@@H](c2ccc(F)cc2)c2c(NC(=O)C3=CCC3)nn(-c3ccccc3)c21` (racemic) [Compound I-152], the pIC50 in assay [1] (setting [2]) and in assay [1] (setting [3]) was at least 6.70 in each case. Besides, on DCN1 protein, the “% Adduct Formation” value was “+ (MS Emax % adduct formation greater than or equal to 0.0 and less than or equal to 30.0)”.

As to `CCN1C(=O)[C@@H](NC(=O)c2cccc(C(F)(F)F)c2)[C@@H](c2ccc(F)cc2)c2c(CN(C)C#N)nn(-c3ccccc3)c21` [Compound I-92], the pIC50 in assay [1] (setting [2]) was at least 6.70; in assay [1] (setting [3]), 6.00 to 6.70. The “% Adduct Formation” value at DCN1 protein was “+++ (MS Emax % adduct formation greater than 80.0 and less than or equal to 100.0)”.

In the case of `CCN1C(=O)[C@@H](NC(=O)c2cccc(C(F)(F)F)c2)[C@@H](c2ccc(F)cc2)c2c(C(=O)NC3(C#N)CC3)nn(-c3ccccc3)c21` [Compound I-112], the pIC50 in assay [1] (setting [2]) was 6.00 to 6.70. Further, the half-maximal inhibitory concentration (IC50) in assay [1] (setting [4]) is 1000 to 3000 nM. The “% Adduct Formation” value on DCN1 protein was “+++ (MS Emax % adduct formation greater than 80.0 and less than or equal to 100.0)”.

Consider `C=C(CN1CCC1)C(=O)NCc1nn(-c2ccccc2)c2c1[C@@H](c1ccc(F)cc1)[C@H](NC(=O)c1cccc(C(F)(F)F)c1)C(=O)N2CC` [Compound I-139], for which the pIC50 in assay [1] (setting [2]) and in assay [1] (setting [3]) was at least 6.70 in each case.

For the molecule `CCN1C(=O)[C@@H](NC(=O)c2cccc(C(F)(F)F)c2)[C@@H](C2CC2)c2c(C(=O)N3CC[C@H](OC)[C@H]3C#N)nn(C3CCOCC3)c21` [Compound I-418], the negative logarithm of the IC50 (pIC50) in assay [1] (setting [2]) and in assay [1] (setting [3]) was at least 6.70 throughout.

Take `CCN1C(=O)[C@@H](NC(=O)c2cccc(C(F)(F)F)c2)[C@@H](C2CC2)c2c(C(=O)N(C)[C@H](C)C#N)nn(C3CCOCC3)c21` [Compound I-422]: the pIC50 in assay [1] (setting [2]) and in assay [1] (setting [3]) was at least 6.70 in each case.

On to `CCN1C(=O)[C@@H](NC(=O)c2cccc(C(F)(F)F)c2)[C@@H](C2CCC2)c2c(C(=O)N3CCC[C@H]3C#N)nn(C3CCOCC3)c21` [Compound I-692], for which the pIC50 in assay [1] (setting [2]) is at least 6.70. In addition, in assay [1] (setting [4]), the IC50 was 200 to 1000 nM.
